Where a name gives a salt, the structure may show the parent alone.
Experiments:
[1] = molecular target: T1, human adenosine A1 receptor (Homo sapiens, UniProt P30542); experiment: Adenosine A1 Receptor Functional Assay (A1GAL2); assay type: cell-based; settings: CHO-K1 cells, cAMP inducible beta-galactosidase reporter, 4 nM r-PIA/1 uM Forskolin agonist challenge
T1 construct: expressed in transfected cells; host or cells: CHO-K1
T1 sequence (P30542 1-326): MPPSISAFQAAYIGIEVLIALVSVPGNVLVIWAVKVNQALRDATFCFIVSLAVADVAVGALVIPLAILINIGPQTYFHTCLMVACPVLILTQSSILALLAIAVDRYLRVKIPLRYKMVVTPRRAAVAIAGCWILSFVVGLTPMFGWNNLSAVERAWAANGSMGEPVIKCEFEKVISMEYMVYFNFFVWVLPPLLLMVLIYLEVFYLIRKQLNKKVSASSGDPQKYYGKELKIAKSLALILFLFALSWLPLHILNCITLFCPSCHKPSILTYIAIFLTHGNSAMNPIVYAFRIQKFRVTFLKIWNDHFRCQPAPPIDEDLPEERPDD
Experimental: Adenosine A1 Receptor Functional Assay (A1GAL2)
To initiate the functional assay, cryopreserved CHO-K1 cells overexpressing the human adenosine A1 receptor and containing a cAMP inducible beta-galactosidase reporter gene were thawed, centrifuged, DMSO containing media removed, and then seeded with fresh culture media into clear 384-well tissue culture treated plates (BD #353961) at a concentration of 10K cells/well. Prior to assay, these plates were cultured for two days at 37° C., 5% CO2, 90% Rh. On the day of the functional assay, culture media was removed and replaced with 45 uL assay medium (Hams/F-12 Modified (Mediatech #10-080CV) supplemented w/0.1% BSA). Test compounds were diluted and 11 point curves created at a 1000× concentration in 100% DMSO. Immediately after addition of assay media to the cell plates, 50 nL of the appropriate test compound antagonist or agonist control curves were added to cell plates using a Cartesian Hummingbird. Compound curves were allowed to incubate at room temperature on cell plates for approximately 15 minutes before addition of a 4 nM r-PIA (Sigma P4532)/1 uM Forskolin (Sigma F3917) agonist challenge (5 uL volume). A control curve of r-PIA in 1 uM Forskolin, a DMSO/Media control, and a single dose of Forskolin were also included on each plate. After additions, cell plates were allowed to incubate at 37° C., 5% CO2, 90% Rh for 5.5-6 hours. After incubation, media was removed, and cell plates were washed 1×50 uL with DPBS w/o Ca & Mg (Mediatech 21-031-CV). Into dry wells, 20 uL of 1× Reporter Lysis Buffer (Promega E3971 (diluted in dH2O from 5× stock)) was added to each well and plates frozen at −20° C. overnight. For β-galactosidase enzyme colorimetric assay, plates were thawed out at room temperature and 20 μL 2× assay buffer (Promega) was added to each well. Color was allowed to develop at 37° C., 5% CO2, 90% Rh for 1-1.5 h or until reasonable signal appeared. The colorimetric reaction was stopped with the addition of 60 μL/well 1M sodium carbonate. Plates were counted at 405 nm on a SpectraMax Microplate Reader (Molecular Devices). Data was analyzed in Microsoft Excel and IC/EC50 curves were fit using a standardized macro.

[2] = molecular target: T2, human adenosine A2a receptor (Homo sapiens, UniProt P29274); experiment: Adenosine A2a Receptor Functional Assay (A2AGAL2); assay type: cell-based; settings: CHO-K1 cells, cAMP inducible beta-galactosidase reporter, 15 nM NECA agonist challenge
T2 construct: expressed in transfected cells; host or cells: CHO-K1
T2 sequence (P29274 whole entry): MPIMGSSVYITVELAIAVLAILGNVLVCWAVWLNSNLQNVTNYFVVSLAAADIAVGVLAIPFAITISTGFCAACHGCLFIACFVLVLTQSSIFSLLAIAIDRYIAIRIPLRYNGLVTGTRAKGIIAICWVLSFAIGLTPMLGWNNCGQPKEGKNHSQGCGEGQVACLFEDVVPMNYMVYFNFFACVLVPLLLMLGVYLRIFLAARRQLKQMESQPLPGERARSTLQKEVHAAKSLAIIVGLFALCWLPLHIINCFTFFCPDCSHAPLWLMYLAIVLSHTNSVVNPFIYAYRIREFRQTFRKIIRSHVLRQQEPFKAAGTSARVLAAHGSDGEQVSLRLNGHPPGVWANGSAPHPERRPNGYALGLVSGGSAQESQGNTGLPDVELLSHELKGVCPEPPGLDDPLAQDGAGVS
Experimental: Adenosine A2a Receptor Functional Assay (A2AGAL2)
To initiate the functional assay, cryopreserved CHO-K1 cells overexpressing the human adenosine A2a receptor and containing a cAMP inducible beta-galactosidase reporter gene were thawed, centrifuged, DMSO containing media removed, and then seeded with fresh culture media into clear 384-well tissue culture treated plates (BD #353961) at a concentration of 10K cells/well. Prior to assay, these plates were cultured for two days at 37° C., 5% CO2, 90% Rh. On the day of the functional assay, culture media was removed and replaced with 45 uL assay medium (Hams/F-12 Modified (Mediatech #10-080CV) supplemented w/0.1% BSA). Test compounds were diluted and 11 point curves created at a 1000× concentration in 100% DMSO. Immediately after addition of assay media to the cell plates, 50 nL of the appropriate test compound antagonist or agonist control curves were added to cell plates using a Cartesian Hummingbird. Compound curves were allowed to incubate at room temperature on cell plates for approximately 15 minutes before addition of a 15 nM NECA (Sigma E2387) agonist challenge (5 uL volume). A control curve of NECA, a DMSO/Media control, and a single dose of Forskolin (Sigma F3917) were also included on each plate. After additions, cell plates were allowed to incubate at 37° C., 5% CO2, 90% Rh for 5.5-6 hours. After incubation, media was removed, and cell plates were washed 1×50 uL with DPBS w/o Ca & Mg (Mediatech 21-031-CV). Into dry wells, 20 uL of 1× Reporter Lysis Buffer (Promega E3971 (diluted in dH2O from 5× stock)) was added to each well and plates frozen at −20° C. overnight. For β-galactosidase enzyme colorimetric assay, plates were thawed out at room temperature and 20μL 2× assay buffer (Promega) was added to each well. Color was allowed to develop at 37° C., 5% CO2, 90% Rh for 1-1.5 h or until reasonable signal appeared. The calorimetric reaction was stopped with the addition of 60 μL/well 1M sodium carbonate. Plates were counted at 405 nm on a SpectraMax Microplate Reader (Molecular Devices). Data was analyzed in Microsoft Excel and IC/EC50 curves were fit using a standardized macro.

[3] = molecular target: T3, human A2a adenosine receptor (Homo sapiens, UniProt P29274); experiment: Ligand Binding Assay for Adenosine A2a Receptor (A2A-B); settings: HEK293 cell plasma membrane, radioligand [3H]CGS21680
T3 construct: purchased PerkinElmer RB-HA2a; host or cells: HEK293 plasma membrane
T3 sequence (P29274 whole entry): as above
Experimental: Ligand Binding Assay for Adenosine A2a Receptor (A2A-B)
Ligand binding assay of adenosine A2a receptor was performed using plasma membrane of HEK293 cells containing human A2a adenosine receptor (PerkinElmer, RB-HA2a) and radioligand [^3H]CGS21680 (PerkinElmer, NET1021). Assay was set up in 96-well polypropylene plate in total volume of 200 μL by sequentially adding 20 μL 1:20 diluted membrane, 130 μL assay buffer (50 mM Tris.HCl, pH7.4 10 mM MgCl2, 1 mM EDTA) containing [^3H] CGS21680, 50 μL diluted compound (4×) or vehicle control in assay buffer. Nonspecific binding was determined by […] NECA. Reaction was carried out at room temperature for 2 hours before filtering through 96-well GF/C filter plate pre-soaked in 50 mM Tris.HCl, pH7.4 containing 0.3% polyethylenimine. Plates were then washed 5 times with cold 50 mM Tris.HCl, pH7.4, dried and sealed at the bottom. Microscintillation fluid 30 μL was added to each well and the top sealed. Plates were counted on Packard Topcount for [^3H]. Data was analyzed in Microsoft Excel and GraphPad Prism programs. (Varani, K.; Gessi, S.; Dalpiaz, A.; Borea, P. A. British Journal of Pharmacology, 1996, 117, 1693)

Row | Ki [1] [µM] | Ki [2] [µM] | Ki [3] [µM] | Molecule
1 | 0.0619 | 0.00473 | – | Nc1nc(-c2ccc(C(F)F)o2)nc2sc(Cc3ccccn3)cc12 [Example 35, 2-(5-Difluoromethyl-furan-2-yl)-6-pyridin-2-ylmethyl-thieno[2,3-d]pyrimidin-4-ylamine]
2 | 0.337 | 0.13 | – | Nc1nc(-c2ccc(C3CC3)o2)nc2sc(Cc3ccccn3)cc12 [Example 20, hydrochloride]
3 | 0.1 | 0.00709 | – | Cc1csc(-c2nc(N)c3cc(Cc4ccccn4)sc3n2)n1 [Example 17, 2-(4-Methyl-thiazol-2-yl)-6-pyridin-2-ylmethyl-thieno[2,3-d]pyrimidin-4-ylamine]
4 | 0.172 | 0.00966 | – | Nc1nc(-c2cnco2)nc2sc(Cc3ccccn3)cc12 [Example 15, 2-Oxazol-5-yl-6-pyridin-2-ylmethyl-thieno[2,3-d]pyrimidin-4-ylamine]
5 | 0.0299 | 0.00118 | – | Cc1ccc(-c2nc(N)c3cc(Cc4ccccn4)sc3n2)o1 [Example 16, 2-(5-Methyl-furan-2-yl)-6-pyridin-2-ylmethyl-thieno[2,3-d]pyrimidin-4-ylamine]
6 | 0.0282 | 0.00525 | – | N#Cc1cccc(-c2nc(N)c3cc(Cc4cccnc4)sc3n2)n1 [Example 21, 6-(4-Amino-6-pyridin-3-ylmethyl-thieno[2,3-d]pyrimidin-2-yl)-pyridine-2-carbonitrile]
7 | 0.838 | 0.0249 | – | Nc1nc(-c2ccc(C(F)F)o2)nc2sc(C(=O)c3ncccc3F)cc12 [Example 25, [4-Amino-2-(5-difluoromethyl-furan-2-yl)-thieno[2,3-d]pyrimidin-6-yl]-(3-fluoro-pyridin-2-yl)-methanone]
8 | 0.353 | 0.00668 | – | Nc1nc(-c2ncco2)nc2sc(Cc3ccccn3)cc12 [Example 3, 2-Oxazol-2-yl-6-pyridin-2-ylmethyl-thieno[2,3-d]pyrimidin-4-ylamine hydrochloride]
9 | 0.579 | 0.409 | – | Nc1nc(-c2ccc(C3CC3)o2)nc2sc(Cc3cccnc3)cc12 [Example 19, 2-(5-Cyclopropyl-furan-2-yl)-6-pyridin-3-ylmethyl-thieno[2,3-d]pyrimidin-4-ylamine]
10 | 0.489 | 0.03 | – | Nc1nc(-c2ncco2)nc2sc(Cc3cccnc3)cc12 [Example 18, 2-Oxazol-2-yl-6-pyridin-3-ylmethyl-thieno[2,3-d]pyrimidin-4-ylamine]
11 | 0.0235 | 0.00162 | – | Nc1nc(-c2ccc(C(F)F)o2)nc2sc(C(O)c3ncccc3Br)cc12 (stereo not shown) [Example 32, [4-Amino-2-(5-difluoromethyl-furan-2-yl)-thieno[2,3-d]pyrimidin-6-yl]-(3-bromo-pyridin-2-yl)-methanol]
12 | 0.0595 | 0.00377 | – | Nc1nc(-c2ccc(C(F)F)o2)nc2sc(C(O)c3ncccc3F)cc12 (stereo not shown) [Example 23, [4-Amino-2-(5-difluoromethyl-furan-2-yl)-thieno[2,3-d]pyrimidin-6-yl]-(3-fluoro-pyridin-2-yl)-methanol]
13 | 0.267 | 0.036 | – | CC(O)(c1ccccn1)c1cc2c(N)nc(-c3ccc(C(F)F)o3)nc2s1 (stereo not shown) [Example 36, 1-[4-Amino-2-(5-difluoromethyl-furan-2-yl)-thieno[2,3-d]pyrimidin-6-yl]-1-pyridin-2-yl-ethanol]
14 | 0.0469 | 0.00482 | – | Nc1nc(-c2ccc(C(F)F)o2)nc2sc(C(O)c3ccccn3)cc12 (stereo not shown) [Example 31, [4-Amino-2-(5-difluoromethyl-furan-2-yl)-thieno[2,3-d]pyrimidin-6-yl]-pyridin-2-yl-methanol]
15 | 0.0926 | 0.00621 | – | Nc1nc(-c2ccc(C(F)F)o2)nc2sc(Cc3ncccc3F)cc12 [Example 24, 2-(5-Difluoromethyl-furan-2-yl)-6-(3-fluoro-pyridin-2-ylmethyl)-thieno[2,3-d]pyrimidin-4-ylamine]
16 | 0.0249 | 0.00239 | – | COc1cccnc1C(O)c1cc2c(N)nc(-c3ccc(C(F)F)o3)nc2s1 (stereo not shown) [Example 29, [4-Amino-2-(5-difluoromethyl-furan-2-yl)-thieno[2,3-d]pyrimidin-6-yl]-(3-methoxy-pyridin-2-yl)-methanol]
17 | 0.0212 | 0.00218 | – | Nc1nc(-c2ccc(C(F)F)o2)nc2sc(Cc3ncccc3Br)cc12 [Example 33, 6-(3-Bromo-pyridin-2-ylmethyl)-2-(5-difluoromethyl-furan-2-yl)-thieno[2,3-d]pyrimidin-4-ylamine]
18 | 0.111 | 0.00429 | – | Nc1nc(-c2ccc(C(F)F)o2)nc2sc(C(O)c3ncccc3O)cc12 (stereo not shown) [Example 34, 2-{[4-Amino-2-(5-difluoromethyl-furan-2-yl)-thieno[2,3-d]pyrimidin-6-yl]-hydroxy-methyl}-pyridin-3-ol]
19 | 0.0326 | 0.00228 | – | COc1cccnc1Cc1cc2c(N)nc(-c3ccc(C(F)F)o3)nc2s1 [Example 37, 2-(5-Difluoromethyl-furan-2-yl)-6-(3-methoxy-pyridin-2-ylmethyl)-thieno[2,3-d]pyrimidin-4-ylamine]
20 | 0.403 | 0.0114 | 0.0163 | CC(O)(c1cc2c(N)nc(-c3ccc(C(F)F)o3)nc2s1)c1ncccc1F (stereo not shown) [Example 30, 1-[4-Amino-2-(5-difluoromethyl-furan-2-yl)-thieno[2,3-d]pyrimidin-6-yl]-1-(3-fluoro-pyridin-2-yl)-ethanol]

Row | Molecule | Ki [1] [µM] | Ki [2] [µM] | Ki [3] [µM]
21 | 6-(6-Chloro-pyridin-3-ylmethyl)-2-(5-methyl-furan-2-yl)-thieno[2,3-d]pyrimidin-4-ylamine [Example 1] | 1.59 | 0.126 | –
